Assay results published in paper PMC9374667 (Communications Biology, 2022).
Several values for one entry are separate records, joined by “and”; a condition that tells them apart may be missing. Equal values may be shown once.

Columns and labels:
3T3-L1 adipocytes = test: Oil Red O staining and lipid quantification; assay type: cell-based, Murine; conditions: for Oil Red O staining of differentiated 3T3-L1 adipocytes spectrophotometric analysis: Figure 7b, replicates;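 as to Oil Red O staining of differentiated 3T3-L1 adipocytes spectrophotometric analysis: treatment added on day 8 of adipocyte differentiation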
Procedure: Meanwhile, we conducted in vitro experiments to validate the role of BJ in adipocytes. […] These findings were similar to the results in vivo.
Murine 3T3-L1 preadipocytes were the kind gift of Prof. Wenbin Shang and Prof. Xizhong Yu (Nanjing University of Chinese Medicine, China). Cells were cultured in Dulbecco’s modified Eagle’s medium (DMEM) supplemented with 10% (vol/vol) fetal bovine serum (FBS), 1% (vol/vol) penicillin/streptomycin in an incubator at 37 °C and 5% CO2 (until confluent). Two days after the preadipocytes reached 100% confluency (designated day 0), the cells were cultured in DMEM with 10% FBS supplemented with IBMX (0.5 mM final concentration), DEX (1 μM final concentration), and insulin (10 μg/ml final concentration) for 3 days (days 0–3). Then the cells were cultured in a medium containing insulin (10 μg/ml final concentration) for another 3 days (days 3–6).
Lipid accumulation in differentiated adipocytes was observed by Oil Red O staining. The differentiated 3T3-L1 adipocytes were washed with PBS for 3 times and fixed with 4% paraformaldehyde for 30 min at room temperature. The fixed 3T3-L1 adipocytes were washed with PBS for 3 times and stained with Oil Red O solution at room temperature for 60 min. Stained lipid droplets were photographed and then eluted with 100% isopropanol stained Oil Red O. Finally, the optical density (OD) value of the eluent was measured at 510 nm wavelength with a microplate reader.

cAMP = cAMP levels in eWAT of db/db mice (isoproterenol); assay type: in vivo; set-up: cAMP levels in eWAT (Figure 4l): unit not given here; conditions: for cAMP levels in eWAT (Figure 4l): individual samples 1-6
Procedure: The epididymal adipose tissue was dissected, the fresh adipose tissue was weighed and rapidly rinsed with PBS. The adipose tissue was cut and incubated with isoproterenol (10 μM) for 2 h, and homogenized in a cold cleavage buffer to prepare the adipose tissue homogenate. Then the homogenate was centrifuged at 12,000 × g at 4 °C for 15 min, and the supernatant was collected. For 3T3-L1 adipocytes, the adipocytes were treated with or without 50 ng/ml TNF-α or 3 μg IKKε plasmid or 4 μM siIKKε for 24 h and then treated with or without 10 μM ISO or 10 μM BJ for 24 h. Then the cells were lysed in a petri dish, scraped off, and centrifuged at 12,000 × g at 4 °C for 15 min before the supernatant was collected.
Glycerol or cAMP content in adipose tissue and 3T3-L1 adipocytes was determined by a glycerol assay kit (Nanjing Jiancheng Bioengineering Institute, Nanjing, China) or a mouse cAMP assay kit (Nanjing Jiancheng Bioengineering Institute, Nanjing, China). And concentrations were further standardized according to protein concentration.

db/db mice [1] = test: Fasting serum insulin levels (ELISA); assay type: in vivo; conditions: db/db mice; for insulin level (Figure 5b): fasting serum, individual mice 1-6; for Fasting serum insulin levels: 35 days of treatment, vs vehicle
Procedure: Mice were fasted for 4 h for insulin resistance test and intraperitoneally injected with 1 unit/kg of insulin. Blood glucose levels were measured from the tail vein blood at 0, 15, 30, 45, 60, 90, and 120 min after injection. Plasma insulin levels were measured using an ultrasensitive mouse insulin ELISA kit (Nanjing Jiancheng Bioengineering Institute, Nanjing, China).

db/db mice [2] = test: Weekly fasting glucose levels of db/db mice; assay type: in vivo; conditions: for Weekly fasting glucose levels of db/db mice (Figure 5a): individual mice 1-10, in mmol/L; for Fasting blood glucose level at the end of the treatment: mouse, in vivo
Procedure: The lean wild type control and the db/db control mice were given equal vehicle volume (0.5% CMC-Na solution). All mice were monitored for food intake, body weight, and fasting blood glucose during the 35-day trial. Glucose tolerance test (GTT) and insulin resistance test (ITT) were performed at 4 and 5 weeks of treatment, respectively. Metabolic analysis was performed at 5 weeks of treatment. At the end of the study, blood samples were taken through the retroorbital venous sinus of mice, fat depots (brown fat, inguinal subcutaneous fat, epididymal fat, perirenal fat and mesenteric fat depot) were dissected, weighed, and immediately frozen in liquid nitrogen and stored at −80 °C until required. Weight of fat depots are expressed in percentage (fat depots weight /bodyweight * 100%).

db/db mice [3] = test: Serum CHO, TG, FFA, LDL-C, HDL-C and ADPN in the fasted state; assay type: in vivo; conditions: db/db mice; for ADPN (Figure 4j) / FFA (Figure 4g) / HDL-C (Figure 4i) / LDL-C (Figure 4h): serum, individual mice 1-6
Procedure: The serum was collected by centrifugation at 3000 × g at 4 °C for 15 min and stored at −80 °C until analysis. TG, TC, LDL-C, HDL-C, and FFA were routinely tested on a Chemray 240 automatic biochemical analyzer (Chemray 240, Shenzhen, China). Serum levels of mouse adiponectin, interleukin6 (IL-6), tumor necrosis factor-α (TNF-α) were measured using commercial enzyme-linked immunosorbent assay (ELISA) kits (Nanjing Jiancheng Bioengineering Institute, Nanjing, China) and according to the manufacturer’s instructions. The levels of IL-6, TNF-α in 3T3-L1 adipocyte culture supernatant were also detected by ELISA.

For `CC(C)Cc1ccc(C(C)C(=O)[O-])cc1.COc1ccc2cc3[n+](cc2c1OC)CCc1cc2c(cc1-3)OCO2.O.O.O.O` [BJ, berberine-ibuprofen], the “Oil Red O staining of differentiated 3T3-L1 adipocytes spectrophotometric analysis” value (3T3-L1 adipocytes; 3μM BJ) was 0.6023 O.D. and 0.5794 O.D. and 0.5902 O.D. and 0.5901 O.D. and 0.5958 O.D. and 0.5823 O.D, the “Oil Red O staining of differentiated 3T3-L1 adipocytes spectrophotometric analysis” value (3T3-L1 adipocytes; 10μM BJ) was 0.6036 O.D. and 0.5893 O.D. and 0.5433 O.D. and 0.5202 O.D. and 0.5568 O.D. and 0.48 O.D and the “Accumulation of lipid droplets” value (3T3-L1 adipocytes; differentiated 3T3-L1 adipocytes, BJ 3 μM and 10 μM, 24 h, Oil Red O) was “reduced the accumulation of lipid droplets in 3T3-L1 adipocytes in a dose-dependent manner”. For the same molecule, the “cAMP levels in eWAT” value (cAMP; db/db mice, isoproterenol stimulation) was “increased the cAMP levels”, the “cAMP levels in eWAT (Figure 4l)” value (cAMP; db/db+ISO+BJ 75mg/kg) was 0.344 (2×) and 0.3396 and 0.3778 and 0.3937 and 0.3516 and the “cAMP levels in eWAT (Figure 4l)” value (cAMP; db/db+ISO+BJ 150mg/kg) was 0.3909 and 0.4246 and 0.4135 (2×) and 0.4162 and 0.4061. The “insulin level (Figure 5b)” value (db/db mice [1]; BJ 75mg/kg) was 10.1686 and 14.5706 and 11.3611 and 13.6498 and 12.9045 and 14.3689, the “insulin level (Figure 5b)” value (db/db mice [1]; BJ 150mg/kg) was 10.5413 and 10.778 and 14.6188 and 12.4266 and 11.7294 and 13.6718 and the “Fasting serum insulin levels” value (db/db mice [1]; 75 mg/kg) was “did not produce significant effects”. For the same molecule, the “Fasting serum insulin levels” value (db/db mice [1]; 150 mg/kg) was “significantly reduced the fasting serum insulin levels”, the “Weekly fasting glucose levels of db/db mice (Figure 5a)” value (“Weekly fasting glucose levels” for short) (db/db mice [2]; BJ 75mg/kg, 1st of 6 weekly columns (time not given)) was 10.4 and 12.5 and 9.4 and 17.8 and 11.6 and 18.6 and 12.1 and 17.5 and 20.6 and 14.4 and the “Weekly fasting glucose levels” value (db/db mice [2]; BJ 75mg/kg, 2nd of 6 weekly columns (time not given)) was 21.7 and 12.2 and 16.6 and 18.3 and 16.2 and 21.2 and 15.0 and 18.5 and 24.4 and 17.9. For the same molecule, the “Weekly fasting glucose levels” value (db/db mice [2]; BJ 75mg/kg, 3rd of 6 weekly columns (time not given)) was 27.0 and 17.1 and 16.6 and 26.0 and 22.1 and 24.6 and 22.7 and 19.1 and 24.8 and 20.1, the “Weekly fasting glucose levels” value (db/db mice [2]; BJ 75mg/kg, 4th of 6 weekly (time not given)) was 16.0 and 19.4 and 17.3 and 23.1 and 21.0 and 18.7 and 20.0 and 16.7 and 18.3 and 19.6 and the “Weekly fasting glucose levels” value (db/db mice [2]; BJ 75mg/kg, 5th of 6 weekly (time not given)) was 8.5 and 16.1 and 10.1 and 17.8 and 19.9 and 13.5 and 18.2 and 12.3 and 18.1 and 11.2. For the same molecule, the “Weekly fasting glucose levels” value (db/db mice [2]; BJ 75mg/kg, 6th of 6 weekly (time not given)) was 8.3 and 14.2 and 11.5 and 16.0 and 17.3 and 15.9 and 14.1 and 11.0 and 16.7 and 10.7, the “Weekly fasting glucose levels” value (db/db mice [2]; BJ 150mg/kg, 1st of 6 weekly columns (time not given)) was 19.4 and 13.4 and 14.8 and 9.9 and 15.4 and 23.3 and 12.6 and the “Weekly fasting glucose levels” value (db/db mice [2]; BJ 150mg/kg, 2nd of 6 weekly columns (time not given)) was 13.5 and 10.8 and 19.3 and 10.6 and 16.2 and 16.8 and 22.9 and 16.4. For the same molecule, the “Weekly fasting glucose levels” value (db/db mice [2]; BJ 150mg/kg, 3rd of 6 weekly columns (time not given)) was 19.8 and 11.7 and 18.2 and 15.6 and 20.6 and 18.3, the “Weekly fasting glucose levels” value (db/db mice [2]; BJ 150mg/kg, 4th of 6 weekly (time not given)) was 11.5 and 5.7 and 10.5 and 13.7 and 14.1 and 14.7 and the “Weekly fasting glucose levels” value (db/db mice [2]; BJ 150mg/kg, 5th of 6 weekly (time not given)) was 6.7 and 14.3 and 13.7 and 9.3 and 8.8 and 13.9. The “Weekly fasting glucose levels” value (db/db mice [2]; BJ 150mg/kg, 6th of 6 weekly (time not given)) was 6.5 and 5.0 and 10.0 and 11.4 and 7.4 and 7.3 and 17.8, the “Blood (serum) glucose levels compared with vehicle” value (db/db mice [2]; db/db mice, BJ 75 and 150 mg/kg, BBR 150 mg/kg, Ibu 150 mg/kg) was “slowed the increase in glucose levels” and the “Fasting blood glucose level at the end of the treatment” value (db/db mice [2]; 75 mg/kg) was 13.6 ± 3.0 mmol/L. The “Fasting blood glucose level at the end of the treatment” value (db/db mice [2]; 150 mg/kg) was 9.4 ± 3.6 mmol/L, the “ADPN (Figure 4j)” value (db/db mice [3]; BJ 75mg/kg) was 460 and 566.78 and 483.17 and 443.62 and 491.01 and 609.29 and the “FFA (Figure 4g)” value (db/db mice [3]; BJ 75mg/kg) was 641.9 and 692.8 and 709.3 and 711.6 and 731.5 and 667. For the same molecule, the “HDL-C (Figure 4i)” value (db/db mice [3]; BJ 75mg/kg) was 2.6 and 2.7 and 3.1 and 2.1 and 3 and 2.4, the “LDL-C (Figure 4h)” value (db/db mice [3]; BJ 75mg/kg) was 4.35 and 5.54 and 4.19 and 5.48 and 5.18 and 4.51 and the “ADPN (Figure 4j)” value (db/db mice [3]; BJ 150mg/kg) was 563.3 and 624.62 and 712.07 and 705.63 and 665.38 and 609.46. The “FFA (Figure 4g)” value (db/db mice [3]; BJ 150mg/kg) was 697.7 and 666.2 and 614.5 and 627 and 678.9 and 614.6, the “HDL-C (Figure 4i)” value (db/db mice [3]; BJ 150mg/kg) was 3.5 and 2.9 and 2.4 and 2.8 and 2.7 and 3.1 and the “LDL-C (Figure 4h)” value (db/db mice [3]; BJ 150mg/kg) was 3.35 and 4.57 and 3.32 and 3.26 and 3.43 and 3.59. The “Serum CHO” value (db/db mice [3]; 75 mg/kg, fasted state, individual mice) was 4.2 mmol/L and 4.3 mmol/L and 4.6 mmol/L and 3.4 mmol/L and 6.1 mmol/L and 5.3 mmol/L.
